# Values quoted from earlier work as cited in patent publication US20120108678A1, “BRANCHED COPOLYMERS, COMPOSITIONS AND USES” (UNILEVER PLC, priority 2009, published 2012).
SMILES,Solubility in water w/w at 20° C.,water solubility (water-insoluble monomer examples) [% w/w]
C=CC(=O)OCCO [2-Hydroxyethyl acrylate],soluble,–
C=C(C)C(=O)OCCO [2-Hydroxyethyl methacrylate],3.00 w/w,–
C=CC(=O)OCC(C)O (centres unmarked) [2-Hydroxypropyl acrylate],Soluble,–
C=C(C)C(=O)O [Methacrylic acid],Soluble,–
C=Cc1ccccc1 [styrene],–,0.02
